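Cells were grown in 96-well plates and exposed to each compound for 48 hours at five concentrations; endpoints were interpolated linearly between bracketing concentrations, or set to the highest concentration if not reached. GI50 marks 50% less growth. TGI: total growth inhibition.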
Key:
Experiment in all cases: growth of human tumour cells (NCI), 48 h
[1] = tested on: 786-0 renal
[2] = tested on: A498 renal
[3] = tested on: A549 NSCLC
[4] = tested on: ACHN renal
[5] = tested on: BT-549 breast
[6] = tested on: CAKI-1 renal
[7] = tested on: CCRF-CEM leukemia
[8] = tested on: COLO 205 colon
[9] = tested on: DU-145 prostate
[10] = tested on: EKVX NSCLC
[11] = tested on: HCC-2998 colon
[12] = tested on: HCT-116 colon
[13] = tested on: HCT-15 colon
[14] = tested on: HL-60(TB) leukemia
[15] = tested on: HOP-62 NSCLC
[16] = tested on: HOP-92 NSCLC
[17] = tested on: HS 578T breast
[18] = tested on: HT29 colon
[19] = tested on: IGROV1 ovarian
[20] = tested on: K-562 leukemia
[21] = tested on: KM12 colon
[22] = tested on: LOX IMVI melanoma
[23] = tested on: M14 melanoma
[24] = tested on: MALME-3M melanoma
[25] = tested on: MCF7 breast
[26] = tested on: MDA-MB-231 breast
[27] = tested on: MDA-MB-435
[28] = tested on: MDA-MB-468 breast
[29] = tested on: MOLT-4 leukemia
[30] = tested on: NCI-H226 lung
[31] = tested on: NCI-H23 lung
[32] = tested on: NCI-H460 lung
[33] = tested on: NCI-H522 lung
[34] = tested on: NCI/ADR-RES ovarian
[35] = tested on: OVCAR-3 ovarian
[36] = tested on: OVCAR-4 ovarian
[37] = tested on: OVCAR-5 ovarian
[38] = tested on: OVCAR-8 ovarian
[39] = tested on: PC-3 prostate
[40] = tested on: RPMI-8226 leukemia
[41] = tested on: RXF 393 renal
[42] = tested on: SF-268 CNS
[43] = tested on: SF-295 CNS
[44] = tested on: SF-539 CNS
[45] = tested on: SK-MEL-2 melanoma
[46] = tested on: SK-MEL-28 melanoma
[47] = tested on: SK-MEL-5 melanoma
[48] = tested on: SK-OV-3 ovarian
[49] = tested on: SN12C renal
[50] = tested on: SNB-19 CNS
[51] = tested on: SNB-75 CNS
[52] = tested on: SR leukemia
[53] = tested on: SW-620 colon
[54] = tested on: T-47D breast
[55] = tested on: TK-10 renal
[56] = tested on: U251 CNS
[57] = tested on: UACC-257 melanoma
[58] = tested on: UACC-62 melanoma
[59] = tested on: UO-31 renal

In the case of `C#CCN(C)CCCOc1ccc(N(CC)C(=O)c2cc(C(C)C)c(O)cc2O)cc1Cl`, the GI50 [1] is reported as 1.37 µM, the TGI [1] is reported as 17.4 µM and the GI50 [2] is reported as 0.679 µM. It also gave a TGI [2] of 15.5 µM, a GI50 [3] of 0.146 µM and a TGI [3] of 15 µM. The GI50 [4] was 0.105 µM, the TGI [4] was 12.7 µM and the GI50 [5] was 1.75 µM. For the same compound, the TGI [5] was 14.3 µM, the GI50 [6] was 0.35 µM and the TGI [6] was 14.6 µM. It also gave a GI50 [7] of 0.0857 µM, a TGI [7] of 13.3 µM and a GI50 [8] of 3.08 µM. For the same compound, the TGI [8] was 13.4 µM, the GI50 [9] was 0.0595 µM and the TGI [9] was 15.3 µM. The GI50 [10] was 0.484 µM, the TGI [10] was 8.53 µM and the GI50 [11] was 0.273 µM. It also gave a TGI [11] of 1.91 µM, a GI50 [12] of 0.138 µM and a TGI [12] of 13.3 µM. For the same compound, the GI50 [13] was 0.0948 µM, the TGI [13] was 12.2 µM and the GI50 [14] was 0.073 µM. For the same compound, the TGI [14] was 2.72 µM, the GI50 [15] was 0.4 µM and the TGI [15] was 19 µM. It also gave a GI50 [16] of 0.446 µM, a TGI [16] of 2.7 µM and a GI50 [17] of 1.56 µM. The TGI [17] was 21.1 µM, the GI50 [18] was 2.97 µM and the TGI [18] was 13.1 µM. For the same compound, the GI50 [19] was 0.193 µM, the TGI [19] was 13.6 µM and the GI50 [20] was 0.0914 µM. It also gave a TGI [20] of 23 µM, a GI50 [21] of 0.111 µM and a TGI [21] of 10.5 µM. The GI50 [22] was 0.139 µM, the TGI [22] was 0.359 µM and the GI50 [23] was 0.462 µM. The TGI [23] was 13 µM, the GI50 [24] was 0.207 µM and the TGI [24] was 1.58 µM. For the same compound, the GI50 [25] was 0.0561 µM, the TGI [25] was 13.7 µM and the GI50 [26] was 0.23 µM. For the same compound, the TGI [26] was 2.75 µM, the GI50 [27] was 0.174 µM and the TGI [27] was 12 µM. The GI50 [28] was 0.115 µM, the TGI [28] was 0.462 µM and the GI50 [29] was 0.139 µM. The TGI [29] was 13.2 µM, the GI50 [30] was 0.604 µM and the TGI [30] was 17.9 µM. The GI50 [31] was 0.346 µM, the TGI [31] was 13.9 µM and the GI50 [32] was 0.0687 µM. The TGI [32] was 10.9 µM, the GI50 [33] was 0.121 µM and the TGI [33] was 5.48 µM. For the same compound, the GI50 [34] was 0.339 µM, the TGI [34] was 7.32 µM and the GI50 [35] was 0.595 µM. For the same compound, the TGI [35] was 14.9 µM, the GI50 [36] was 1.63 µM and the TGI [36] was 19.4 µM. It also gave a GI50 [37] of 0.482 µM, a TGI [37] of 16 µM and a GI50 [38] of 0.219 µM. The TGI [38] was 15.6 µM, the GI50 [39] was 0.232 µM and the TGI [39] was 14.7 µM. For the same compound, the GI50 [40] was 0.294 µM, the TGI [40] was 3.17 µM and the GI50 [41] was 0.917 µM. It also gave a TGI [41] of 12.5 µM, a GI50 [42] of 1.66 µM and a TGI [42] of 23.9 µM. The GI50 [43] was 0.384 µM, the TGI [43] was 12.6 µM and the GI50 [44] was 0.361 µM. For the same compound, the TGI [44] was 12.8 µM, the GI50 [45] was 0.979 µM and the TGI [45] was 15.5 µM. It also gave a GI50 [46] of 0.413 µM, a TGI [46] of 12.7 µM and a GI50 [47] of 0.397 µM. The TGI [47] was 1.79 µM, the GI50 [48] was 0.0521 µM and the TGI [48] was 12.4 µM. For the same compound, the GI50 [49] was 0.105 µM, the TGI [49] was 8.28 µM and the GI50 [50] was 0.43 µM. It also gave a TGI [50] of 13.4 µM, a GI50 [51] of 0.947 µM and a TGI [51] of 16.1 µM. For the same compound, the GI50 [52] was 0.0483 µM, the TGI [52] was 8.5 µM and the GI50 [53] was 0.192 µM. For the same compound, the TGI [53] was 13.8 µM, the GI50 [54] was 0.0888 µM and the TGI [54] was 11.9 µM. It also gave a GI50 [55] of 0.195 µM, a TGI [55] of 12.3 µM and a GI50 [56] of 0.399 µM. For the same compound, the TGI [56] was 15.1 µM, the GI50 [57] was 0.434 µM and the TGI [57] was 11.4 µM. The GI50 [58] was 0.174 µM, the TGI [58] was 0.793 µM and the GI50 [59] was 0.156 µM. For the same compound, the TGI [59] was 13.2 µM.
